Measured values reported in PubChem BioAssay (NCI).
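Method: 48-hour compound exposure of cells in 96-well plates, five concentrations, linear interpolation of endpoints. At the GI50, growth is halved. TGI: total growth inhibition.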

What was measured:
Assay in all cases: NCI anticancer screen, dose series, 48 h
UO-31 renal = system: UO-31 renal
SK-MEL-28 melanoma = system: SK-MEL-28 melanoma
MALME-3M melanoma = system: MALME-3M melanoma
SN12C renal = system: SN12C renal
HCT-15 colon = system: HCT-15 colon
SF-295 CNS = system: SF-295 CNS
A498 renal = system: A498 renal
TK-10 renal = system: TK-10 renal
HS 578T breast = system: HS 578T breast
U251 CNS = system: U251 CNS
IGROV1 ovarian = system: IGROV1 ovarian
UACC-257 melanoma = system: UACC-257 melanoma
SK-OV-3 ovarian = system: SK-OV-3 ovarian
SNB-75 CNS = system: SNB-75 CNS
K-562 leukemia = system: K-562 leukemia
CAKI-1 renal = system: CAKI-1 renal
OVCAR-8 ovarian = system: OVCAR-8 ovarian
SR leukemia = system: SR leukemia
HT29 colon = system: HT29 colon
COLO 205 colon = system: COLO 205 colon
SF-268 CNS = system: SF-268 CNS
UACC-62 melanoma = system: UACC-62 melanoma
PC-3 prostate = system: PC-3 prostate
A549 NSCLC = system: A549 NSCLC
KM12 colon = system: KM12 colon
NCI/ADR-RES ovarian = system: NCI/ADR-RES ovarian
M14 melanoma = system: M14 melanoma
HCC-2998 colon = system: HCC-2998 colon
EKVX NSCLC = system: EKVX NSCLC
OVCAR-4 ovarian = system: OVCAR-4 ovarian
SK-MEL-2 melanoma = system: SK-MEL-2 melanoma
NCI-H23 lung = system: NCI-H23 lung
MOLT-4 leukemia = system: MOLT-4 leukemia
NCI-H522 lung = system: NCI-H522 lung
MDA-MB-435 = system: MDA-MB-435
SF-539 CNS = system: SF-539 CNS
786-0 renal = system: 786-0 renal
T-47D breast = system: T-47D breast
HOP-62 NSCLC = system: HOP-62 NSCLC
SW-620 colon = system: SW-620 colon
OVCAR-5 ovarian = system: OVCAR-5 ovarian
OVCAR-3 ovarian = system: OVCAR-3 ovarian
NCI-H460 lung = system: NCI-H460 lung
NCI-H226 lung = system: NCI-H226 lung
SK-MEL-5 melanoma = system: SK-MEL-5 melanoma
CCRF-CEM leukemia = system: CCRF-CEM leukemia
MCF7 breast = system: MCF7 breast
SNB-19 CNS = system: SNB-19 CNS
HOP-92 NSCLC = system: HOP-92 NSCLC
MDA-MB-231 breast = system: MDA-MB-231 breast
DU-145 prostate = system: DU-145 prostate
RPMI-8226 leukemia = system: RPMI-8226 leukemia

Q: With C#C[C@]1(O)CC[C@H]2[C@@H]3CC=C4c5sc(Nc6ccccc6)nc5CC[C@]4(C)[C@H]3CC[C@@]21C as the molecule, how does the GI50 (UO-31 renal) read?
A: The GI50 was 1.43 µM.

Q: What about the TGI (UO-31 renal) of the same molecule?
A: The TGI was 2.91 µM.

Q: What about the GI50 (SK-MEL-28 melanoma) of the same molecule?
A: The GI50 was 0.692 µM.

Q: And the TGI (SK-MEL-28 melanoma)?
A: The TGI was 2.75 µM.

Q: What about the GI50 (MALME-3M melanoma) of the same molecule?
A: Its GI50 is 1.31 µM.

Q: What about the TGI (MALME-3M melanoma) of the same molecule?
A: Its TGI is 3.79 µM.

Q: What about the GI50 (SN12C renal) of the same molecule?
A: The GI50 was 2.86 µM.

Q: What about the TGI (SN12C renal) of the same molecule?
A: Its TGI is 11.1 µM.

Q: And the GI50 (HCT-15 colon)?
A: Its GI50 is 1.69 µM.

Q: What about the TGI (HCT-15 colon) of the same molecule?
A: Its TGI is 6.47 µM.

Q: What about the GI50 (SF-295 CNS) of the same molecule?
A: Its GI50 is 0.244 µM.

Q: And the TGI (SF-295 CNS)?
A: The TGI was 0.649 µM.

Q: And the GI50 (A498 renal)?
A: Its GI50 is 1.34 µM.

Q: What about the TGI (A498 renal) of the same molecule?
A: Its TGI is 3.66 µM.

Q: And the GI50 (TK-10 renal)?
A: Its GI50 is 3.79 µM.

Q: What about the TGI (TK-10 renal) of the same molecule?
A: Its TGI is 13.2 µM.

Q: And the GI50 (HS 578T breast)?
A: The GI50 was 0.504 µM.

Q: What about the TGI (HS 578T breast) of the same molecule?
A: The TGI was 5.23 µM.

Q: What about the GI50 (U251 CNS) of the same molecule?
A: Its GI50 is 0.886 µM.

Q: And the TGI (U251 CNS)?
A: Its TGI is 3.18 µM.

Q: What about the GI50 (IGROV1 ovarian) of the same molecule?
A: Its GI50 is 2.06 µM.

Q: What about the TGI (IGROV1 ovarian) of the same molecule?
A: The TGI was 5.5 µM.

Q: And the GI50 (UACC-257 melanoma)?
A: The GI50 was 2.46 µM.

Q: What about the TGI (UACC-257 melanoma) of the same molecule?
A: The TGI was 8.6 µM.

Q: What about the GI50 (SK-OV-3 ovarian) of the same molecule?
A: The GI50 was 2.37 µM.

Q: What about the TGI (SK-OV-3 ovarian) of the same molecule?
A: Its TGI is 10.6 µM.

Q: What about the GI50 (SNB-75 CNS) of the same molecule?
A: The GI50 was 0.858 µM.

Q: What about the TGI (SNB-75 CNS) of the same molecule?
A: The TGI was 7.41 µM.

Q: And the GI50 (K-562 leukemia)?
A: The GI50 was 1.86 µM.

Q: What about the TGI (K-562 leukemia) of the same molecule?
A: Its TGI is greater than 100 µM.

Q: And the GI50 (CAKI-1 renal)?
A: Its GI50 is 1.64 µM.

Q: What about the TGI (CAKI-1 renal) of the same molecule?
A: The TGI was 4.41 µM.

Q: And the GI50 (OVCAR-8 ovarian)?
A: Its GI50 is 2.71 µM.

Q: What about the TGI (OVCAR-8 ovarian) of the same molecule?
A: The TGI was 26.8 µM.

Q: What about the GI50 (SR leukemia) of the same molecule?
A: The GI50 was 0.623 µM.

Q: What about the TGI (SR leukemia) of the same molecule?
A: The TGI was greater than 100 µM.

Q: And the GI50 (HT29 colon)?
A: The GI50 was 1.81 µM.

Q: And the TGI (HT29 colon)?
A: Its TGI is 6.68 µM.

Q: What about the GI50 (COLO 205 colon) of the same molecule?
A: The GI50 was 2.18 µM.

Q: And the TGI (COLO 205 colon)?
A: The TGI was 5.39 µM.

Q: What about the GI50 (SF-268 CNS) of the same molecule?
A: The GI50 was 2.19 µM.

Q: And the TGI (SF-268 CNS)?
A: The TGI was 10.1 µM.

Q: And the GI50 (UACC-62 melanoma)?
A: Its GI50 is 2.13 µM.

Q: And the TGI (UACC-62 melanoma)?
A: The TGI was 6.44 µM.

Q: What about the GI50 (PC-3 prostate) of the same molecule?
A: Its GI50 is 1.22 µM.

Q: And the TGI (PC-3 prostate)?
A: Its TGI is 43.5 µM.

Q: And the GI50 (A549 NSCLC)?
A: The GI50 was 3.48 µM.

Q: What about the TGI (A549 NSCLC) of the same molecule?
A: The TGI was 24.9 µM.

Q: And the GI50 (KM12 colon)?
A: The GI50 was 2.66 µM.

Q: And the TGI (KM12 colon)?
A: The TGI was 12.7 µM.

Q: What about the GI50 (NCI/ADR-RES ovarian) of the same molecule?
A: The GI50 was 2.15 µM.

Q: What about the TGI (NCI/ADR-RES ovarian) of the same molecule?
A: The TGI was greater than 100 µM.

Q: And the GI50 (M14 melanoma)?
A: Its GI50 is 1.6 µM.

Q: And the TGI (M14 melanoma)?
A: Its TGI is 4.51 µM.

Q: And the GI50 (HCC-2998 colon)?
A: The GI50 was 1.91 µM.

Q: What about the TGI (HCC-2998 colon) of the same molecule?
A: Its TGI is 4.22 µM.

Q: And the GI50 (EKVX NSCLC)?
A: Its GI50 is 2.83 µM.

Q: And the TGI (EKVX NSCLC)?
A: Its TGI is 13.8 µM.

Q: What about the GI50 (OVCAR-4 ovarian) of the same molecule?
A: The GI50 was 3.14 µM.

Q: And the TGI (OVCAR-4 ovarian)?
A: The TGI was 65.6 µM.

Q: What about the GI50 (SK-MEL-2 melanoma) of the same molecule?
A: The GI50 was 1.61 µM.

Q: And the TGI (SK-MEL-2 melanoma)?
A: The TGI was 5.75 µM.

Q: And the GI50 (NCI-H23 lung)?
A: The GI50 was 2.37 µM.

Q: What about the TGI (NCI-H23 lung) of the same molecule?
A: Its TGI is 13.1 µM.

Q: What about the GI50 (MOLT-4 leukemia) of the same molecule?
A: The GI50 was 0.577 µM.

Q: What about the TGI (MOLT-4 leukemia) of the same molecule?
A: Its TGI is 12.4 µM.

Q: What about the GI50 (NCI-H522 lung) of the same molecule?
A: The GI50 was 2.27 µM.

Q: And the TGI (NCI-H522 lung)?
A: The TGI was 6.26 µM.

Q: And the GI50 (MDA-MB-435)?
A: The GI50 was 3 µM.

Q: And the TGI (MDA-MB-435)?
A: The TGI was 11.2 µM.

Q: And the GI50 (SF-539 CNS)?
A: The GI50 was 0.37 µM.

Q: What about the TGI (SF-539 CNS) of the same molecule?
A: Its TGI is 1.52 µM.

Q: What about the GI50 (786-0 renal) of the same molecule?
A: Its GI50 is 0.655 µM.

Q: And the TGI (786-0 renal)?
A: The TGI was 2.12 µM.

Q: And the GI50 (T-47D breast)?
A: The GI50 was 2.05 µM.

Q: What about the TGI (T-47D breast) of the same molecule?
A: The TGI was 6.94 µM.

Q: What about the GI50 (HOP-62 NSCLC) of the same molecule?
A: The GI50 was 2.19 µM.

Q: What about the TGI (HOP-62 NSCLC) of the same molecule?
A: The TGI was 10.7 µM.

Q: What about the GI50 (SW-620 colon) of the same molecule?
A: Its GI50 is 2.06 µM.

Q: And the TGI (SW-620 colon)?
A: Its TGI is 5.85 µM.

Q: What about the GI50 (OVCAR-5 ovarian) of the same molecule?
A: Its GI50 is 2.44 µM.

Q: What about the TGI (OVCAR-5 ovarian) of the same molecule?
A: The TGI was 9.68 µM.

Q: And the GI50 (OVCAR-3 ovarian)?
A: The GI50 was 1.89 µM.

Q: What about the TGI (OVCAR-3 ovarian) of the same molecule?
A: Its TGI is 5.34 µM.

Q: And the GI50 (NCI-H460 lung)?
A: Its GI50 is 2.4 µM.

Q: What about the TGI (NCI-H460 lung) of the same molecule?
A: The TGI was 6.4 µM.

Q: What about the GI50 (NCI-H226 lung) of the same molecule?
A: The GI50 was 2.55 µM.

Q: And the TGI (NCI-H226 lung)?
A: Its TGI is 7.59 µM.

Q: And the GI50 (SK-MEL-5 melanoma)?
A: The GI50 was 1.72 µM.

Q: What about the TGI (SK-MEL-5 melanoma) of the same molecule?
A: The TGI was 3.26 µM.

Q: What about the GI50 (CCRF-CEM leukemia) of the same molecule?
A: The GI50 was 1.1 µM.

Q: What about the TGI (CCRF-CEM leukemia) of the same molecule?
A: Its TGI is 11.3 µM.

Q: What about the GI50 (MCF7 breast) of the same molecule?
A: Its GI50 is 1.57 µM.

Q: And the TGI (MCF7 breast)?
A: Its TGI is 4.28 µM.

Q: What about the GI50 (SNB-19 CNS) of the same molecule?
A: The GI50 was 1.99 µM.

Q: And the TGI (SNB-19 CNS)?
A: The TGI was 7.16 µM.

Q: What about the GI50 (HOP-92 NSCLC) of the same molecule?
A: The GI50 was 3.81 µM.

Q: What about the TGI (HOP-92 NSCLC) of the same molecule?
A: Its TGI is 29.7 µM.

Q: And the GI50 (MDA-MB-231 breast)?
A: Its GI50 is 2.01 µM.

Q: What about the TGI (MDA-MB-231 breast) of the same molecule?
A: The TGI was 6.8 µM.

Q: And the GI50 (DU-145 prostate)?
A: Its GI50 is 1.87 µM.

Q: What about the TGI (DU-145 prostate) of the same molecule?
A: The TGI was 4.71 µM.

Q: What about the GI50 (RPMI-8226 leukemia) of the same molecule?
A: The GI50 was 0.309 µM.

Q: What about the TGI (RPMI-8226 leukemia) of the same molecule?
A: The TGI was 1.6 µM.
